# Literature values, collected in patent EP4241780A1, “ENRICHED POLYPHENOLIC FRACTIONS OF ARONIA EXTRACTS AND USES THEREOF” (Diana, priority 2022, dated 2023).
# System: HepG2 cells
# Settings: 100% pure compounds, reference [31], Figure 4
row,SMILES,EC50 intracellular antioxidant activity of pure compounds [µg/mL]
1,O=c1c(O)c(-c2ccc(O)c(O)c2)oc2cc(O)cc(O)c12 [quercetin],7
2,Oc1ccc(C=Cc2cc(O)cc(O)c2)cc1 [resveratrol],14.8
